In patent US6001331A, “Method of imaging amyloid deposits” (Warner-Lambert Company, priority 1998, dated 1999) one finds IC50 data, which are given here for 31 compounds.

By pIC50 is commonly meant −log10 of the IC50, conventionally taken in molar units.

Test [1] has as its target Insulin amyloid aggregates. As to the kind of experiment: Competition assay with Thioflavin T (ThT) for binding to insulin amyloid aggregates, fluorescence 96-well plate. Conditions: 0.5 μM ThT, 2 μg per well fibrils, 25 mM sodium phosphate pH 6.0, room temperature. As to the method:
Burke M. J. and Rougevie M. A., Cross-β Protein Structures. I. Insulin Fibrils. […] Briefly, lyophilized insulin protein powder dissolved at 10 mg/mL in 50 mM HCl was alternately heated to 95° C. and frozen in dry ice to form amyloid aggregates.
(§1) The ability of compounds of Formula I to compete with Thioflavin T (ThT) for binding to amyloid aggregates was measured using fluorescence in a 96-well fluorescence plate assay. As a compromise between sensitivity and signal and to facilitate comparisons between different amyloid fibrils, ThT is present at a concentration equal to the Kmapp of the particular amyloid fibril type and fibril concentrations yielding a similar fluorescence intensity are used. Insulin: 0.5 μM ThT, 2 μg per well. β(1-40): 20 μM ThT, 5 μg/well. All solutions are in 25 mM sodium phosphate buffer, pH 6.0, and the assay is performed at room temperature.
Using a multichannel pipettor, 100 μL of dilutions of the compound to be tested (0.001-30 μM final concentration in 3-fold steps) are placed in the bottom of Corning U-well polystyrene plates (Corning Company, Corning, N.Y.). 50 μL of ThT are then added to each well. The amyloid fibrils are then added to each well in a volume of 100 μL rapidly to mix the well contents. […] ThT dye blanks were used to correct for the minimal fluorescence background which are subtracted from all data.
(§2) Results are expressed as % maximal fluorescence (no competing compound). […]

Test [2] deals with T1, βA(1-40) amyloid aggregates (Homo sapiens, UniProt P05067).
T1 construct: lyophilized β(1-40) protein powder (which may be purchased from BACHEM); purchased BACHEM
As to the kind of experiment: Competition assay with Thioflavin T (ThT) for binding to β(1-40) amyloid aggregates, fluorescence 96-well plate.
Description: Amyloid aggregates containing β(1-40) protein can also be made by methods well known to those skilled in the art. See, for example, Burdick D., Soreghan B., Kwon M., Kosmoski J., Knauer M., Henschen A., Yates J., Cotman C., and Glabe C. Assembly and aggregation properties of synthetic Alzheimer's A4/β amyloid peptide analogs. J. Biol. Chem., 267:546-554 (1992), which is hereby incorporated by reference. Briefly, lyophilized β(1-40) protein powder (which may be purchased from BACHEM) was dissolved at 10 mg/mL in hexafluoro-2-propanol and subsequently diluted to 500 μg/mL in 25 mM sodium phosphate buffer, pH 6 to induce the α-helix to β-sheet transition resulting in aggregate formation.
as §1
Using a multichannel pipettor, 100 μL of dilutions of the compound to be tested (0.001-30 μM final concentration in 3-fold steps) are placed in the bottom of Corning U-well polystyrene plates (Corning Company, Corning, N.Y.). 50 μL of ThT are then added to each well. The amyloid fibrils are then added to each well in a volume of 100 μL rapidly to mix the well contents. The plates are read within 5 to 30 minutes in a Millipore Cytofluor 2350 96-well fluorescence plate reader using an excitation filter of 440 nm (20 nm bandpass) and an emission filter of 485 nm (20 nm bandpass). ThT dye blanks were used to correct for the minimal fluorescence background which are subtracted from all data.
as §2

The mark [3] stands for this setting: 20 μM ThT, 5 μg/well fibrils, 25 mM sodium phosphate pH 6.0, room temperature, read-out: βA(1-40), IC50.

pIC50: −log10 of the molar value. Read-outs that look alike come from different tables or passages of the source.

T1 sequence (P05067 672-711 limits assumed): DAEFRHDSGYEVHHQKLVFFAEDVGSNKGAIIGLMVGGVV

Consider `CN(C)c1ccc(/C=C/c2sc3ccc(F)cc3[n+]2Cc2ccccc2)cc1` [Example 15, (E)-2-[2-(4-Dimethylaminophenyl)vinyl]-3-benzyl-5-fluorobenzothiazol-3-ium bromide], for which the values for the pIC50 in test [1] and in test [2] were 7.49 and 6.77, respectively.

`CN(C)c1ccc(/C=C/c2sc3ccccc3[n+]2CCCc2ccccc2)cc1` [Example 31, (E)-2-[2-(4-Dimethylaminophenyl)vinyl]-3-(3-phenylpropyl)benzothiazol-3-ium iodide]: the pIC50 in test [1] was 6.68; in test [2] (setting [3]), 6.70.

`CN(C)c1ccc(/N=N/c2nc3c(ccc4ccccc43)s2)c2ccccc12` [Example 52, Dimethyl[4-(naphtho[1,2-d]thiazol-2-ylazo)naphthalen-1-yl]amine] showed a pIC50 in test [1] of 4.80.

Turning to `CN(C)c1ccc(/C=C/c2sc3ccccc3[n+]2CCCCCc2ccccc2)cc1` [Example 36, (E)-2-[2-(4-Dimethylaminophenyl)vinyl]-3-(5-phenylpentyl)benzothiazol-3-ium iodide], the pIC50 in test [2] (setting [3]) was 6.77.

As for `Cc1ccc2sc(/C=C/c3ccc(N(C)C)cc3)[n+](C)c2c1` [Example 16, (E)-2-[2-(4-Dimethylaminophenyl)vinyl]-3,5-dimethylbenzothiazol-3-ium iodide], the figures for the pIC50 in test [1] and in test [2] (setting [3]) were 8.12 and 6.40, respectively.

As to `CN(C)c1ccc(/C=C/c2sc3cc4ccccc4cc3[n+]2C)cc1` [Example 23, (E)-2-[2-(4-Dimethylaminophenyl)vinyl]-3-methylnaphtho[2,3-d]thiazol-3-ium iodide], the negative-log IC50 (pIC50) in test [1] and in test [2] (setting [3]) was 6.92 in each case.

`CN(C)c1ccc(/C=C/c2sc3ccccc3[n+]2Cc2ccccc2-c2ccccc2)cc1` [Example 28, (E)-3-Biphenyl-2-ylmethyl-2-[2-(4-dimethylaminophenyl)vinyl]benzothiazol-3-ium bromide]: the pIC50 in test [1] is 7.10.

As for `CN(C)c1ccc(/C=C/c2sc3ccccc3[n+]2Cc2ccc(-c3ccccc3)cc2)cc1` [Example 26, (E)-3-Biphenyl-4-ylmethyl-2-[2-(4-dimethylaminophenyl)vinyl]benzothiazol-3-ium iodide], the negative logarithm of the IC50 (pIC50) in test [1] was 7.47; in test [2] (setting [3]) it was 6.62.

Turning to `C=CC[n+]1c(/C=C/c2ccc(N(C)C)cc2)sc2ccccc21` [Example 10, (E)-2-[2-(4-Dimethylaminophenyl)vinyl]-3-allylbenzothiazol-3-ium bromide], the negative logarithm of the IC50 (pIC50) in test [1] was 7.92; in test [2] it was 6.52.

Regarding `CN(C)c1ccc(/C=C/c2sc3ccccc3[n+]2Cc2ccc3ccccc3c2)cc1` [Example 27, (E)-2-[2-(4-Dimethylaminophenyl)vinyl]-3-naphthalen-2-ylmethylbenzothiazol-3-ium bromide], the pIC50 in test [1] was 7.89; in test [2], 6.92.

Take `CN(C)c1ccc(/C=C/c2sc3ccccc3[n+]2Cc2ccc(F)cc2)cc1` [Example 25, (E)-2-[2-(4-Dimethylaminophenyl)vinyl]-3-(4-fluorobenzyl)benzothiazol-3-ium bromide]: the results for the negative-log IC50 (pIC50) in test [1] and in test [2] were 7.38 and 6.92, respectively.

`COc1ccc2c(c1)sc(/C=C/c1ccc(N(C)C)c3ccccc13)[n+]2C` [Example 41, (E)-2-[2-(4-Dimethylaminonaphthalen-1-yl)vinyl]-6-methoxy-3-methylbenzothiazol-3-ium iodide]: the pIC50 is 7.59 in test [1] and 6.37 in test [2] (setting [3]).

Turning to `COc1ccc2c(c1)sc(/C=C/c1ccc(N(C)C)cc1)[n+]2C` [Example 19, (E)-2-[2-(4-Dimethylaminophenyl)vinyl]-6-methoxy-3-methylbenzothiazol-3-ium iodide], the pIC50 in test [2] (setting [3]) was 6.52.

On to `Cc1ccc2c(c1)sc(/C=C/c1ccc(N(C)C)cc1)[n+]2Cc1ccccc1` [Example 18, (E)-3-Benzyl-2-[2-(4-dimethylaminophenyl)vinyl]-6-methylbenzothiazol-3-ium bromide], for which the pIC50 was 7.30 in test [1] and 6.89 in test [2].

Consider `CCCCCCC[n+]1c(/C=C/c2ccc(N(C)C)c3ccccc23)sc2ccccc21` [Example 39, (E)-2-[2-(4-Dimethylaminonaphthalen-1-yl)vinyl]-3-heptylbenzothiazol-3-ium iodide], for which the values for the pIC50 in test [1] and in test [2] (setting [3]) were 7.40 and 6.80, respectively.

With `CCCCCCC[n+]1c(/C=C/c2ccc(N(C)C)cc2)sc2cc(OC)ccc21` [Example 20, (E)-2-[2-(4-Dimethylaminophenyl)vinyl]-3-heptyl-6-methoxybenzothiazol-3-ium iodide], the figures for the pIC50 in test [1] and in test [2] (setting [3]) were 7.40 and 6.85, respectively.

For the compound `CN(C)c1ccc(/C=C/c2sc3ccccc3[n+]2CCCCOc2ccccc2)cc1` [Example 35, (E)-2-[2-(4-Dimethylaminophenyl)vinyl]-3-(4-phenoxybutyl)benzothiazol-3-ium iodide], in test [2] (setting [3]), the pIC50 is 6.77.

As to `Nc1ccc(/N=N/c2nc3ccccc3s2)c2ccccc12` [Example 48, 4-(Benzothiazol-2-ylazo)naphthalen-1-ylamine], the pIC50 in test [1] was 6.96; in test [2] (setting [3]), 6.92.

Consider `COc1ccc2nc(/N=N/c3ccc(N(C)C)c4ccccc34)sc2c1` [Example 51, [4-(6-Methoxybenzothiazol-2-ylazo)naphthalen-1-yl]dimethylamine], for which the pIC50 in test [1] was 6.47; in test [2] (setting [3]) it was 5.60.

In the case of `CN(C)c1ccc(/C=C/c2nc3ccccc3s2)cc1` [Example 2, (E)-{4-[2-(Benzothiazol-2-yl)vinyl]phenyl}dimethylamine], the pIC50 in test [2] (setting [3]) was below 4.00.

For `CN(C)c1ccc(/C=C/c2sc3ccccc3[n+]2Cc2cccc(C(=O)c3ccccc3)c2)cc1` [Example 29, (E)-3-(3-Benzoylbenzyl)-2-[2-(4-dimethylaminophenyl)vinyl]benzothiazol-3-ium bromide], the figures for the pIC50 in test [1] and in test [2] were 6.89 and 6.64, respectively.

Regarding `CN(C)c1ccc(/C=C/c2sc3ccccc3[n+]2CCCOCc2ccccc2)cc1` [Example 34, (E)-3-(3-Benzyloxypropyl)-2-[2-(4-dimethylaminophenyl)vinyl]benzothiazol-3-ium iodide], the negative-log IC50 (pIC50) in test [1] was 7.28; in test [2] (setting [3]) it was 6.85.

In the case of `CN(C)c1ccc(/C=C/c2sc3ccc(F)cc3[n+]2C)cc1` [Example 14, (E)-2-[2-(4-Dimethylaminophenyl)vinyl]-5-fluoro-3-methylbenzothiazol-3-ium iodide], in test [2] (setting [3]), the negative-log IC50 (pIC50) was 6.00.

Consider `CN(C)c1ccc(/C=C/c2sc3ccccc3[n+]2Cc2ccccc2)cc1` [Example 6, (E)-3-Benzyl-2-[2-(4-dimethylaminophenyl)vinyl]benzothiazol-3-ium bromide], for which the pIC50 in test [1] was 7.92; in test [2], 6.96.

Compound `CN(C)c1ccc(/C=C/c2sc3ccccc3[n+]2C/C=C/c2ccccc2)cc1` [Example 32, (E,E)-2-[2-(4-Dimethylaminophenyl)vinyl]-3-(3-phenylallyl)benzothiazol-3-ium bromide] gave a pIC50 in test [1] of 7.10.

As for `CN(C)c1ccc(/C=C/c2sc3ccccc3[n+]2C)cc1` [Example 9, (E)-2-[2-(4-Dimethylaminophenyl)vinyl]-3-methylbenzothiazol-3-ium iodide], in test [2] (setting [3]), the negative logarithm of the IC50 (pIC50) is 6.00.

`Cc1ccc2sc(/C=C/c3ccc(N(C)C)cc3)nc2c1` [Example 3, (E)-Dimethyl-{4-[2-(5-methylbenzothiazol-2-yl)vinyl]phenyl}amine]: in test [1], the pIC50 is 6.05.

With `CCCCCCC[n+]1c(/C=C/c2ccc(N(C)C)cc2)sc2ccccc21` [Example 12, (E)-2-[2-(4-Dimethylaminophenyl)vinyl]-3-heptylbenzothiazol-3-ium iodide], in test [2] (setting [3]), the negative-log IC50 (pIC50) was 7.03.

With `CN(C)c1ccc(/C=C/c2nc3ccc(N(C)C)cc3s2)cc1` [Example 5, (E)-{2-[2-(4-Dimethylaminophenyl)vinyl]benzothiazol-6-yl}dimethylamine], the negative logarithm of the IC50 (pIC50) in test [2] (setting [3]) is below 4.00.

For `CN(C)c1ccc(/N=N/c2nc3ccccc3s2)cc1` [Example 47, [4-(Dimethylamino)phenylazo]benzothiazole], in test [2] (setting [3]), the pIC50 was 4.66.

For `Cc1ccc2nc(/C=C/c3ccc(N(C)C)cc3)sc2c1` [Example 4, (E)-Dimethyl-{4-[2-(6-methylbenzothiazol-2-yl)vinyl]phenyl}amine], the pIC50 in test [1] was 5.82.
